Where a SMILES comes first, the peptide text is derived from it. Bridges are numbered along the chain shown (N, C = ends). [ ]: non-standard residue; d: D form. Trp(1-CH2COOH) = N[C@@H](Cc1cn(CC(=O)O)c2ccccc12)C(=O)O; Trp(βS-Me) = C[C@@H](c1c[nH]c2ccccc12)[C@H](N)C(=O)O; Phe(3,4,5-F3) = N[C@@H](Cc1cc(F)c(F)c(F)c1)C(=O)O; Hyp = O=C(O)[C@@H]1C[C@@H](O)CN1; NMeF = CN[C@@H](Cc1ccccc1)C(=O)O; dHyp = O=C(O)[C@H]1C[C@H](O)CN1; NMeNle = CCCC[C@H](NC)C(=O)O; Pip = O=C(O)[C@@H]1CCCCN1; NMeA = CN[C@@H](C)C(=O)O; Dab = NCC[C@H](N)C(=O)O; Dap = NC[C@H](N)C(=O)O
Target: T1, Human PD-L1/PD-1 (Homo sapiens, UniProt Q9NZQ7)
T1 construct: TVMV protease cleavage site (C); made in house; host or cells: HEK293T cells
Test: HTRF Human PD-L1/PD-1 binding assay (PD-1-Ig/PD-L1-His)
Settings: PD-L1-His 10 nM, PD-1-Ig 20 nM; class symbol; read-out: HTRF Human PD-L1/PD-1 Binding Assay IC50 Range
How it was run: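 Soluble HEK293T-expressed proteins: hPD-L1-His 10 nM, hPD-1-Ig 20 nM final. Cpd + PD-L1 15 min, + PD-1 15 min, + Eu anti-Ig 1 nM/APC anti-His 20 nM 30 min. Buffer dPBS, 0.1% BSA, 0.05% Tween-20. TR-FRET 665/620.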

T1 sequence (Q9NZQ7 with tags, fused parts or gaps): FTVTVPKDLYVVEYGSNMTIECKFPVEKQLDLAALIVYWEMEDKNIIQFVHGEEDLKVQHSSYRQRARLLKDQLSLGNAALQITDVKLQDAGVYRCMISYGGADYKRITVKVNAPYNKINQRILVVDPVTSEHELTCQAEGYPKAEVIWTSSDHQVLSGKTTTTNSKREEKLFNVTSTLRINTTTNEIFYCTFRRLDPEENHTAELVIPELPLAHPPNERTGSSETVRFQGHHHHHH

Compound	IC50 [nM]
CCCC[C@H]1C(=O)N2C[C@@H](O)C[C@@H]2C(=O)N[C@@H](CC(=O)O)C(=O)N[C@@H](C(C)C)C(=O)N(C)[C@@H](Cc2ccccc2)C(=O)N[C@@H](Cc2ccc(O)cc2)C(=O)N2CCC[C@@H]2C(=O)N[C@@H]([C@@H](C)c2c[nH]c3ccccc23)C(=O)N[C@@H](Cc2ccc(O)cc2)C(=O)N[C@@H](CC(C)C)C(=O)N[C@H](C(=O)NCC(N)=O)CSCC(=O)N[C@@H](Cc2cc(F)c(F)c(F)c2)C(=O)N(C)[C@@H](Cc2ccccc2)C(=O)N1C [Example 10551] ({CH2CO}-[Phe(3,4,5-F3)][NMeF][NMeNle][dHyp]DV[NMeF]Y[dP][Trp(βS-Me)]YLCG-NH2; thioether N-13)	1 to 9.9
CCCC[C@H]1C(=O)N(C)[C@@H](CCCC)C(=O)N[C@@H](CCN)C(=O)N[C@H](C(=O)NCC(N)=O)CSCC(=O)N[C@@H](Cc2ccc(O)cc2)C(=O)N(C)[C@@H](C)C(=O)N[C@@H](CC(N)=O)C(=O)N2CCC[C@H]2C(=O)N[C@@H](CN)C(=O)N[C@@H](CCC(N)=O)C(=O)N2C[C@H](O)C[C@H]2C(=O)N[C@@H](Cc2c[nH]c3ccccc23)C(=O)N[C@@H](CO)C(=O)N[C@@H](Cc2cn(CC(=O)O)c3ccccc23)C(=O)N1C [Example 6119] ({CH2CO}-Y[NMeA]NP[Dap]Q[Hyp]WS[Trp(1-CH2COOH)][NMeNle][NMeNle][Dab]CG-NH2; thioether N-14)	1 to 9.9
CCCC[C@H]1C(=O)N(C)[C@@H](CCCC)C(=O)N[C@@H](CC(C)C)C(=O)N[C@H](C(=O)NCC(N)=O)CSCC(=O)N[C@@H](Cc2ccc(O)cc2)C(=O)N2CCCC[C@H]2C(=O)N[C@@H](CC(N)=O)C(=O)N2CCC[C@H]2C(=O)N[C@@H](CN)C(=O)N[C@@H](CC(C)C)C(=O)N2C[C@H](O)C[C@H]2C(=O)N[C@@H](Cc2c[nH]c3ccccc23)C(=O)N[C@@H](CCN)C(=O)N[C@@H](Cc2cn(CC(=O)O)c3ccccc23)C(=O)N1C [Example 1297] ({CH2CO}-Y[Pip]NP[Dap]L[Hyp]W[Dab][Trp(1-CH2COOH)][NMeNle][NMeNle]LCG-NH2; thioether N-14)	1 to 9.9
CCCC[C@H]1C(=O)N(C)[C@@H](CCCC)C(=O)N[C@@H](CCC(=O)O)C(=O)N[C@H](C(=O)NCC(N)=O)CSCC(=O)N[C@@H](Cc2ccc(O)cc2)C(=O)N(C)[C@@H](C)C(=O)N[C@@H](CC(N)=O)C(=O)N2CCC[C@H]2C(=O)N[C@@H](CO)C(=O)N[C@@H](CC(C)C)C(=O)N2C[C@H](O)C[C@H]2C(=O)N[C@@H](Cc2c[nH]c3ccccc23)C(=O)N[C@@H](CCC(=O)O)C(=O)N[C@@H](Cc2c[nH]c3ccccc23)C(=O)N1C [Example 5216] ({CH2CO}-Y[NMeA]NPSL[Hyp]WEW[NMeNle][NMeNle]ECG-NH2; thioether N-14)	1 to 9.9
CCCC[C@H]1C(=O)N(C)[C@@H](CCCC)C(=O)N[C@@H](CCCCN)C(=O)N[C@H](C(=O)NCC(N)=O)CSCC(=O)N[C@@H](Cc2ccc(O)cc2)C(=O)N(C)[C@@H](C)C(=O)N[C@@H](CC(N)=O)C(=O)N2CCC[C@H]2C(=O)N[C@@H](Cc2cnc[nH]2)C(=O)N[C@@H](CCC(=O)O)C(=O)N2C[C@H](O)C[C@H]2C(=O)N[C@@H](Cc2c[nH]c3ccccc23)C(=O)N[C@@H](CO)C(=O)N[C@@H](Cc2cn(CC(=O)O)c3ccccc23)C(=O)N1C [Example 6297] ({CH2CO}-Y[NMeA]NPHE[Hyp]WS[Trp(1-CH2COOH)][NMeNle][NMeNle]KCG-NH2; thioether N-14)	1 to 9.9
CCCC[C@H]1C(=O)N(C)[C@@H](CCCC)C(=O)N[C@@H](CCC(=O)O)C(=O)N[C@H](C(=O)NCC(N)=O)CSCC(=O)N[C@@H](Cc2ccc(OC)cc2)C(=O)N(C)[C@@H](C)C(=O)N[C@@H](CC(=O)O)C(=O)N2CCC[C@H]2C(=O)N[C@@H](CN)C(=O)N[C@@H](CCCCN)C(=O)N2C[C@H](O)C[C@H]2C(=O)N[C@@H](Cc2c[nH]c3ccccc23)C(=O)N[C@@H](CC(=O)O)C(=O)N[C@@H](Cc2c[nH]c3ccccc23)C(=O)N1C [Example 7130] ({CH2CO}-Y(Me)[NMeA]DP[Dap]K[Hyp]WDW[NMeNle][NMeNle]ECG-NH2; thioether N-14)	10 to 99.9
